According to ChEMBL document CHEMBL1153157, “Discovery of benzimidazole-diamide finger loop (Thumb Pocket I) allosteric inhibitors of HCV NS5B polymerase: Implementing parallel synthesis for rapid linker optimization” (Bioorg Med Chem Lett, 2010):
Values after ≈ are worked out from the molar mass of the structure shown. Active and inactive are the calls of the source. No cut-off for these calls is given here.

How the values were obtained:
[1] = Aqueous solubility at pH 7.2; format: physicochemical; conditions: buffer
Cytochrome P450 3A4 = Cytochrome P450 3A4 (Homo sapiens, UniProt P08684); assay: Inhibition of human liver CYP3A4; format: ADME
Cytochrome P450 2C19 = Cytochrome P450 2C19 (Homo sapiens, UniProt P33261); assay: Inhibition of human liver CYP2C19; format: ADME
Liver microsomes = assay: (§1) Half life in human liver microsomes at 10 uM; format: ADME, Microsome; conditions: microsomes, 10 µM
Hepatitis C virus [2] = assay: Inhibition of N-terminal hexahistidine tagged HCV 1b NS5B polymerase expressed in baculovirus infected Sf21 cells after 90 mins by SPA; set-up: species or system Hepatitis C virus subtype 1b; conditions: Sf21, 1.5 h
Cytochrome P450 2D6 = Cytochrome P450 2D6 (Homo sapiens, UniProt P10635); assay: Inhibition of human liver CYP2D6; format: ADME
Hepatitis C virus [3] = assay: Antiviral activity against Hepatitis C virus subtype 1b by cell-based replicon assay; format: functional, organism-based, Hepacivirus hominis; conditions: genotype 1b
[4] = Lipophilicity, log D at pH 7.4; format: physicochemical; conditions: buffer
Cytochrome P450 2C9 = Cytochrome P450 2C9 (Homo sapiens, UniProt P11712); assay: Inhibition of human liver CYP2C9; format: ADME
Cytochrome P450 1A2 = biological target: T1, Cytochrome P450 1A2 (Homo sapiens, UniProt P05177); assay: Inhibition of human liver CYP1A2; format: ADME
T1 sequence (P05177 whole entry): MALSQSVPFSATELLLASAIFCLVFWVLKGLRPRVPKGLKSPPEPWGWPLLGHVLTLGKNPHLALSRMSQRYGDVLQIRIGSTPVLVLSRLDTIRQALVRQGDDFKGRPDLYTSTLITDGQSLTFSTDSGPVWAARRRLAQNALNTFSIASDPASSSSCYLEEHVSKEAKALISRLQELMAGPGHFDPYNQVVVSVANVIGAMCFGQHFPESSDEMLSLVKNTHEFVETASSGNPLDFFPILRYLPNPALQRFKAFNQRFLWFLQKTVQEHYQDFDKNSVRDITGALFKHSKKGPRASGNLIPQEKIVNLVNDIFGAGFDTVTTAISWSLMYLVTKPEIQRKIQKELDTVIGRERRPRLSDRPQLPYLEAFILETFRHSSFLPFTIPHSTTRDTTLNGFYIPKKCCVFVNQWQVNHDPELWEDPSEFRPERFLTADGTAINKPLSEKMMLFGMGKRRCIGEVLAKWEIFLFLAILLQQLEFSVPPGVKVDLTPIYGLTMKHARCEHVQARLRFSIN

[5] = as §1; format: ADME, Microsome; conditions: liver microsomes
Enterovirus C = assay: Inhibition of Poliovirus RNA dependent RNA polymerase expressed in Escherichia coli BL21 (DE3) up to 200 uM after 90 mins by SPA
Bos taurus = organism: Bos taurus; assay: Inhibition of calf thymus DNA-dependent RNA polymerase up to 200 uM after 120 mins

Cytochrome P450 2C9, sequence (P11712 whole entry): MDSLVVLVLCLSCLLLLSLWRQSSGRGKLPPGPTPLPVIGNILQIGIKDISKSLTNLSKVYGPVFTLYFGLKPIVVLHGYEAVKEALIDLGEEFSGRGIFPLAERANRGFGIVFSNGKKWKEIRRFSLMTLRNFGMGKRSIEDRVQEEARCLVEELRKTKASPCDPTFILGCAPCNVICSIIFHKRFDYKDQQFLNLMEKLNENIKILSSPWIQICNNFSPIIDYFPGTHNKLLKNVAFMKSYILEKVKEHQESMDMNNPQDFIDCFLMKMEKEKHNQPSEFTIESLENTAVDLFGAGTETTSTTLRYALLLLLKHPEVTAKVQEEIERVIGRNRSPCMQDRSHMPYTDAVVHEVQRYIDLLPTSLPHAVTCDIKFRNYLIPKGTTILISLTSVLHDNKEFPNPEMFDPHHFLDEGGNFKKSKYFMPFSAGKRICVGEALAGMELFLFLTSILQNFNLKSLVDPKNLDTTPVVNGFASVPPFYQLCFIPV
Cytochrome P450 2C19, sequence (P33261 whole entry): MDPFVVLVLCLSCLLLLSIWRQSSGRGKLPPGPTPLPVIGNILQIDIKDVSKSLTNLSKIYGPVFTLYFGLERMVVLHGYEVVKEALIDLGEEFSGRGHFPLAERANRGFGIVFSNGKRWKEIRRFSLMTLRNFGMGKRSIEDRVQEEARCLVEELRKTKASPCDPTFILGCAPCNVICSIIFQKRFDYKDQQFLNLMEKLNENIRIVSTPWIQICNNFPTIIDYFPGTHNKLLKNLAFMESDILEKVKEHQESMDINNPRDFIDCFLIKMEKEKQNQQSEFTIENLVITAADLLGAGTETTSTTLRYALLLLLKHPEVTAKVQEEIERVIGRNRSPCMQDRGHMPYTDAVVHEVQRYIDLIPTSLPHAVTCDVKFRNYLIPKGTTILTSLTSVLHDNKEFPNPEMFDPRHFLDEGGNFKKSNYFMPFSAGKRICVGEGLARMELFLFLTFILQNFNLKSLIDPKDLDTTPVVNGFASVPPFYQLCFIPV
Cytochrome P450 3A4, sequence (P08684 whole entry): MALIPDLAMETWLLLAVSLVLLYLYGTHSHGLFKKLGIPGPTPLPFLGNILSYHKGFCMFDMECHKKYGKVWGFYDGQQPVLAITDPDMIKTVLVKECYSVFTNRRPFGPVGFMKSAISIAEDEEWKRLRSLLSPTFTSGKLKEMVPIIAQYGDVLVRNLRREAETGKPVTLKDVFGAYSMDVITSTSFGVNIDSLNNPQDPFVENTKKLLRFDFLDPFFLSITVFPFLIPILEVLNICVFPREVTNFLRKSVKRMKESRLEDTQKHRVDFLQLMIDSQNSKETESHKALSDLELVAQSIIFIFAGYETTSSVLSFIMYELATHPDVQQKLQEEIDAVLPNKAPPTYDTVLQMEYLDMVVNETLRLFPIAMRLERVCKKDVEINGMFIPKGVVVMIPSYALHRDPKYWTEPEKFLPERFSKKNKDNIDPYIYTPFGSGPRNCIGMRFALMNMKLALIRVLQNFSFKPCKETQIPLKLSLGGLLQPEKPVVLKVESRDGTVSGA
Cytochrome P450 2D6, sequence (P10635 whole entry): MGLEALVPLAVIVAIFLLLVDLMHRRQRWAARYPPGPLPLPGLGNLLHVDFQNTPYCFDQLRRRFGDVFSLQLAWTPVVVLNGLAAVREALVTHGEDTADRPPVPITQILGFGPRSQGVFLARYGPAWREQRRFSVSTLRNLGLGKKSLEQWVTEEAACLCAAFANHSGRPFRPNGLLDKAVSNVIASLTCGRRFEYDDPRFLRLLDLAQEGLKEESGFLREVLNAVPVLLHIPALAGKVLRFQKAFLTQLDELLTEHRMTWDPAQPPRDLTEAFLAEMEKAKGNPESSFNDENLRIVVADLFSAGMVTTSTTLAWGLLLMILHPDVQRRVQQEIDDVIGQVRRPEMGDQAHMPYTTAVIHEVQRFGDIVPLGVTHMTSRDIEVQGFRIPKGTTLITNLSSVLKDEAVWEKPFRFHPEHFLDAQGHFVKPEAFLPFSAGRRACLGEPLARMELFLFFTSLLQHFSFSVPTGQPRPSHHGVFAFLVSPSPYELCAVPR

Compound | IC50 (Hepatitis C virus [2]) [µM] | EC50 (Hepatitis C virus [3]) [µM] | also measured
O=C(N[C@@H](Cc1c[nH]c2ccc(O)cc12)c1cscn1)c1ccc2c(c1)nc(-c1ccoc1)n2C1CCCCC1 | 0.3 | 1.7 | solubility [1]: < 0.07 µg/mL; IC50 (Cytochrome P450 3A4): 0.4 µM; IC50 (Cytochrome P450 2C19): 2.4 µM; t1/2 (Liver microsomes): 26 min; IC50 (Cytochrome P450 2D6): 4 µM; logD [4]: 3.8; IC50 (Cytochrome P450 2C9): 2.3 µM; IC50 (Cytochrome P450 1A2): > 30 µM
Cn1c(-c2ccoc2)c(C2CCCCC2)c2ccc(C(=O)N[C@@H](Cc3c[nH]c4ccc(O)cc34)c3cscn3)cc21 | 0.1 | 0.05 | 
C[C@@H](NC(=O)c1ccc2c(c1)nc(-c1ccoc1)n2C1CCCCC1)C(=O)Nc1ccc(/C=C/C(=O)O)cc1 | 0.13 | 6.9 | solubility [1]: 171 µg/mL (≈ 325 µM); IC50 (Cytochrome P450 3A4): 12.3 µM; IC50 (Cytochrome P450 2C19): > 30 µM; half-life at 10 µM [5]: 44 min; Activity (Enterovirus C): inactive; IC50 (Cytochrome P450 2D6): > 30 µM; logD [4]: 2.2; Activity (Bos taurus): inactive; IC50 (Cytochrome P450 2C9): > 30 µM; IC50 (Cytochrome P450 1A2): > 30 µM
CC(=O)COc1ccc(NC(=O)C(C)NC(=O)c2ccc3c(c2)nc(-c2ccoc2)n3C2CCCCC2)cc1 (racemic) | 0.9 |  | 
O=C(O)COc1ccc2[nH]cc(C[C@H](NC(=O)c3ccc4c(c3)nc(-c3ccoc3)n4C3CCCCC3)C(=O)O)c2c1 | 0.019 |  | 
CC(NC(=O)c1ccc2c(c1)nc(-c1ccoc1)n2C1CCCCC1)C(=O)Nc1cccc(/C=C/C(=O)O)c1 (racemic) | 0.9 |  | 
CC(NC(=O)c1ccc2c(c1)nc(-c1ccoc1)n2C1CCCCC1)C(=O)Nc1cccc(C(=O)O)c1 (racemic) | 1.61 |  | 
CC(NC(=O)c1ccc2c(c1)nc(-c1ccoc1)n2C1CCCCC1)C(=O)Nc1ccc(CC(=O)O)cc1 (racemic) | 1.52 |  | 
O=C(O)/C=C/c1ccc(NC(=O)CNC(=O)c2ccc3c(c2)nc(-c2ccoc2)n3C2CCCCC2)cc1 | 0.28 | 41 | 
C[C@@H](NC(=O)c1ccc2c(c1)nc(-c1ccoc1)n2C1CCCCC1)C(=O)Nc1ccc2oc(C(=O)O)cc2c1 | 0.09 | > 42 | 
CC(NC(=O)c1ccc2c(c1)nc(-c1ccoc1)n2C1CCCCC1)C(=O)Nc1ccc(C(=O)O)cc1 (racemic) | 0.39 | 30 | 
C[C@H](NC(=O)c1ccc2c(c1)nc(-c1ccoc1)n2C1CCCCC1)C(=O)Nc1ccc(/C=C/C(=O)O)cc1 | 0.36 | 25 | 
CC[C@@H](NC(=O)c1ccc2c(c1)nc(-c1ccoc1)n2C1CCCCC1)C(=O)Nc1ccc(/C=C/C(=O)O)cc1 | 0.4 | 6.5 | 
C[C@@H](NC(=O)c1ccc2c(c1)nc(-c1ccoc1)n2C1CCCCC1)C(=O)Nc1ccc2[nH]c(C(=O)O)cc2c1 | 0.06 | > 40 | 
CC(NC(=O)c1ccc2c(c1)nc(-c1ccoc1)n2C1CCCCC1)C(=O)Nc1ccc(-c2ccc(C(=O)O)o2)cc1 (racemic) | 0.45 | 28 | 
CC(NC(=O)c1ccc2c(c1)nc(-c1ccoc1)n2C1CCCCC1)C(=O)Nc1ccc(/C=C/C(=O)O)cc1 (racemic) | 0.34 | 13 | 
